From article PMC5216056 (Nature Communications, 2017)
Values joined by “and” are separate entries in the source; they are usually repeats but may differ in a detail not shown here. Equal values may be shown once. Read-outs that look alike come from different tables or passages of the source.

How the values were obtained:
[1] = target: T1, hCB1R (Homo sapiens, UniProt P21554); test: biochemical; assay type: binding
T1 construct: host or cells: CHO

[2] = target: T2, mCB1R (Mus musculus, UniProt P47746); test: biochemical; assay type: binding
T2 construct: from tissue; host or cells: brain of male C57BL/6J mice
T2 sequence (P47746 whole entry): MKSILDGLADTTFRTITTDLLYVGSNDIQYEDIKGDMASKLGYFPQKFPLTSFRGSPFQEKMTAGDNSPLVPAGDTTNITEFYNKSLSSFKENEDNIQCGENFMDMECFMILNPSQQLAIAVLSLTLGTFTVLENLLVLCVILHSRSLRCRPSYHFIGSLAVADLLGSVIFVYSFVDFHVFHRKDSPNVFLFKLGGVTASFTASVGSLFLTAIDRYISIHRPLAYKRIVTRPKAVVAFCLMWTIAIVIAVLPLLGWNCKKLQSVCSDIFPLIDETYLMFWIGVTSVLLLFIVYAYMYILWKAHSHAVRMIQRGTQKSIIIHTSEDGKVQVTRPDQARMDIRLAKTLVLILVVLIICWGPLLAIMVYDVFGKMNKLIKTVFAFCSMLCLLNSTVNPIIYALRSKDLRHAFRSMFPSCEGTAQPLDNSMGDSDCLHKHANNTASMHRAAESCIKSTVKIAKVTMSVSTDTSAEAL

[3] = target: T1, hCB1R; test: cell-based
[4] = target: T2, mCB1R; test: biochemical
[5] = target: T1, hCB1R; test: cell-based; assay type: cell-based; settings: read-out: Emax ± SEM pERK hCB1R
[6] = target: T1, hCB1R; test: cell-based; assay type: cell-based; settings: AtT20, read-out: Emax ± SEM GIRK hCB1R
[7] = tested on: AEA reuptake in HaCaT cells; test: cells; assay type: cell-based, human; settings: Homo sapiens, HaCaT
[8] = tested on: C57BL6/J mice; test: Triad assay: catalepsy; assay type: in vivo, mouse; settings: i.p., cumulative dosing, mice
[9] = tested on: C57BL6/J mice; test: Triad assay: antinociception; assay type: in vivo, mouse; settings: i.p., cumulative dosing, mice
[10] = tested on: C57BL6/J mice; test: Triad assay: hypothermia; assay type: in vivo, mouse; settings: i.p., cumulative dosing, mice
[11] = physchem; settings: pH 6.5, aqueous buffer, thermodynamic from solid
[12] = in vitro; settings: both, human, microsomes, pH 7.4
[13] = in vitro; settings: male, C57BL/6J, mouse, microsomes, pH 7.4
[14] = target: T3, mCB2R (Mus musculus, UniProt P47936); test: biochemical; assay type: binding; set-up: from tissue; host or cells: spleen of male C57BL/6J mice; settings: mouse spleen membranes; read-out: pKi ± SEM mCB2R (converted)
T3 sequence (P47936 whole entry): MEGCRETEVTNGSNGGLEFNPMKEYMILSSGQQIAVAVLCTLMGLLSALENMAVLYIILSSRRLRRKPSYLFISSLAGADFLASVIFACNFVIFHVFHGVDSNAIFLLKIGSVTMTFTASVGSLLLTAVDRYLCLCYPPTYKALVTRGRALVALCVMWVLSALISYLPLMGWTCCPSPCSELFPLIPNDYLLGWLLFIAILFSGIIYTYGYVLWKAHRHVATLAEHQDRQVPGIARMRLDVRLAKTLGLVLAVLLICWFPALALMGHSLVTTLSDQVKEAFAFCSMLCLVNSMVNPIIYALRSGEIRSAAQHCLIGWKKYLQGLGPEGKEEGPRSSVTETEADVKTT

[15] = target: T3, mCB2R; test: biochemical; assay type: biochemical; set-up: from tissue; host or cells: spleen of male C57BL/6J mice
[16] = target: T4, hCB2R (Homo sapiens, UniProt P34972); test: cell-based; assay type: cell-based; set-up: expressed in transfected cells; host or cells: Flp-In-293 (Invitrogen #R750-07), pcDNA5/FRT; settings: read-out: Emax ± SEM cAMP hCB2R
T4 sequence (P34972 whole entry): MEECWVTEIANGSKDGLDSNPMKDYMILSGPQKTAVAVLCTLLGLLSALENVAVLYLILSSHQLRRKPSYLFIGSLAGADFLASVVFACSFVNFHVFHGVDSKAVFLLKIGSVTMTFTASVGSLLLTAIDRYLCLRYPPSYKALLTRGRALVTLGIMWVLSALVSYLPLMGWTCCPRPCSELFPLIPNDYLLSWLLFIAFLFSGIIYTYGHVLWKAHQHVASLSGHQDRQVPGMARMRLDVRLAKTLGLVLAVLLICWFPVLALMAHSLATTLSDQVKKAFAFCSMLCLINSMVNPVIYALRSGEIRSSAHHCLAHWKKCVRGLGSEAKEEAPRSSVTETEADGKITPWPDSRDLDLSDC

[17] = target: T4, hCB2R; test: cell-based; assay type: cell-based; set-up: expressed in transfected cells; host or cells: Flp-In-293 (Invitrogen #R750-07), pcDNA5/FRT; settings: read-out: Emax ± SEM pERK hCB2R
[18] = target: T4, hCB2R; test: cell-based; assay type: cell-based; set-up: expressed in transfected cells; host or cells: Flp-In-293 (Invitrogen #R750-07), pcDNA5/FRT; settings: AtT20, read-out: Emax ± SEM GIRK hCB2R
[19] = target: T4, hCB2R; set-up: expressed in transfected cells; host or cells: Flp-In-293 (Invitrogen #R750-07), pcDNA5/FRT

T1 sequence (P21554 whole entry): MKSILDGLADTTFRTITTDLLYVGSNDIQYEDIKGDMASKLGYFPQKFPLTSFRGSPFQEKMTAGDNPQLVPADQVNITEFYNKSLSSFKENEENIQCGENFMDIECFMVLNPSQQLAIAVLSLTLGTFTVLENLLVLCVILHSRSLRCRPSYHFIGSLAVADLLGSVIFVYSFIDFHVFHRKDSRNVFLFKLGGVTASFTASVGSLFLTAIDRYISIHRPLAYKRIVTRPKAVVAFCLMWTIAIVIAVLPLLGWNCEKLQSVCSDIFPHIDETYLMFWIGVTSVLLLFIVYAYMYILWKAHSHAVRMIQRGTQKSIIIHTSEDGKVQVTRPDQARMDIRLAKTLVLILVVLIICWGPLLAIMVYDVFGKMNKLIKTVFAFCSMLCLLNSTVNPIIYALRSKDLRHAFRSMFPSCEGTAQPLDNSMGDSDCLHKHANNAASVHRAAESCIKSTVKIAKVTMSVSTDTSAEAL

CCCCCCC(C)(C)c1cc(O)c2c(c1)OC(C)(C)[C@@H]1CC=C(CO)C[C@@H]21 [HU210]
Ki [1]: 0.282 nM
Ki [2]: 1.1 nM
EC50 ([3]; pEC50 ± SEM cAMP hCB1R): 0.263 nM
Emax ([3]; read-out: Emax ± SEM cAMP hCB1R): 104 ± 3%
EC50 ([4]; pEC50 ± SEM cAMP mCB1R): 0.0933 nM
Emax ([4]; read-out: Emax cAMP mCB1R): 65%
Emax [5]: 96 ± 7%
Emax [6]: 97 ± 8%
inhibition at 10 µM ([7]; read-out: AEA reuptake % inhibition, effect at 10 µM, HaCaT cells, 10 µM (values marked *)): 44%
IC50 ([7]; read-out: AEA reuptake IC50 (95% CI) HaCaT cells): > 5000 nM
catalepsy ED50 (95% CL) [8]: 0.19 (0.14–0.27) mg kg^−1
antinociception ED50 (95% CL) [9]: 0.41 (0.31–0.54) mg kg^−1
hypothermia ED50 (95% CL) [10]: 0.35 (0.30–0.41) mg kg^−1
Pct acceptor (PAMPA): 0%
Pct donor (PAMPA): 23%
Pct membrane (PAMPA, compound found in membranes): 76%
Pampa Peff (membrane permeation coefficient): 0.22 cm/s*10-6
solubility kinetic [11]: < 0.2 µg/mL and < 0.5 µM
microsomal CLint [12]: 25 µL/min/mg
microsomal CLint [13]: 33 µL/min/mg
Ki [14]: 0.537 nM
EC50 ([15]; mouse spleen, read-out: pEC50 ± SEM cAMP mCB2R (converted)): 6.61 nM
Emax ([15]; read-out: Emax cAMP mCB2R): 68%
Emax [16]: 94 ± 0.1%
Emax [17]: 105 ± 10%
Emax [18]: 105 ± 4%
LogR GIRK [19]: 7.19
LogR pERK [19]: 8.22
RE GIRK [19]: 0.21
RE pERK [19]: 0.15
pERK-GIRK bias factor (BF) [19]: 0.71
pERK-GIRK ΔΔlogR [19]: -0.15
ΔLogR GIRK [19]: -0.67
ΔLogR pERK [19]: -0.82
